One series relates to hepatoma tumor. The conditions noted are these: mice, doses of 4 and 8 mg/kg b.w.; cited from earlier work.
A further series concerns horses. The conditions noted are these: cited from earlier work.
The subject of the next series is cell lines. The conditions noted are these: cited from earlier work.
Series [1] in a line: Cytotoxicity battery in fibroblasts. Format: cell-based. To be noted: mouse, Balb/c 3T3 fibroblasts, inhibiting lysosomal and mitochondrial activity and synthesis of cellular proteins, read-out: cytotoxic concentrations. Here is the method: (§1) The concentration ranges of the drugs were chosen according to their solubility and their plasma level. Each drug was dissolved in DMSO. The final concentration of DMSO was 0.1% or 0.2% in the medium for both samples and corresponding controls. […] All drug solutions in medium were freshly prepared and protected from light. SAL was tested in seven concentrations from 0.39 to 25 µg/mL. Tiamulin was added in two concentrations (1 and 10 µg/mL) or just one concentration (1 µg/mL) to cell lines or human hepatocytes, respectively. Prednisolone was tested in one concentration—1 µg/mL independent of the type of cells. […] The cytotoxicity was assessed after 24 and 48 h of exposure of cell lines or after 12 and 24 h exposure of PHH. […]
(§2) The metabolic activity of living cells was assessed by measuring the activity of dehydrogenases. […] The plate was shaken for 15 min at room temperature and transferred to a microplate reader to measure the absorbance at 570 nm, using a blank as a reference. Cytotoxicity was expressed as a percentage of the negative control (0.1% or 0.2% DMSO).
(§3) The assay, based on staining of living cells by neutral red (NR), was performed according to the protocol described by Borenfreund and Puerner. […] After 10 min of shaking, the absorbance of the dissolved NR was measured at 540 nm using a blank as a reference. […]

Series [2] has as its system Balb/c 3T3 cells. The series is described as follows: LDH leakage assay in Balb/c 3T3. Format: cell-based. To be noted: Mus musculus, BALB/c3T3, Balb/c 3T3, LDH, mean ± SEM, n = 3, read-out: EC50 (effective concentration). Here is the method:
The HepG2 cell line was purchased from the American Type Culture Collection (ATCC® HB-8065™). The cells were cultured in Minimum Essential Medium Eagle (MEME) (Sigma–Aldrich Co. (St. Louis, MO, USA)). Normal murine embryonic fibroblasts, Balb/c 3T3 clone A31 cell line (gift from Department of Swine Diseases of the National Veterinary Research Institute in Pulawy) was cultured in Dulbecco’s Modified Eagle’s Medium (DMEM) (Invitrogen Corporations (Paisley, UK)). The media were supplemented with 10% BCS (Balb/c 3T3), 10% FBS (HepG2), 1% L-glutamine, and 1% antibiotic solution. The cells were maintained in 75 cm^2 cell culture flasks in humidified incubator at 37 °C, in an atmosphere of 5% CO2. […] The initial cell viability was determined with the trypan blue exclusion test. […]
The concentration ranges of the drugs were chosen according to their solubility and their plasma level. […] The cytotoxicity was assessed after 24 and 48 h of exposure of cell lines or after 12 and 24 h exposure of PHH. […]
The integrity of the plasma membrane was assessed through the test of lactate dehydrogenase (LDH) release, which was monitored using a commercially available Cytotoxicity Detection Kit (LDH) (Roche Diagnostics, Basel, Switzerland). […] The absorbance was measured at 492 nm in a microplate reader using a blank as a reference.
In general terms: LDH in the medium is a marker of cell lysis.

The test system of series [3] is Balb/c 3T3 cells. The series is described as follows: NRU assay in Balb/c 3T3. Format: cell-based, mouse. The conditions noted are these: for EC50: Mus musculus, read-out: EC50 (effective concentration). Here is the method:
(§4) The HepG2 cell line was purchased from the American Type Culture Collection (ATCC® HB-8065™). The cells were cultured in Minimum Essential Medium Eagle (MEME) (Sigma–Aldrich Co. (St. Louis, MO, USA)). Normal murine embryonic fibroblasts, Balb/c 3T3 clone A31 cell line (gift from Department of Swine Diseases of the National Veterinary Research Institute in Pulawy) was cultured in Dulbecco’s Modified Eagle’s Medium (DMEM) (Invitrogen Corporations (Paisley, UK)). The media were supplemented with 10% BCS (Balb/c 3T3), 10% FBS (HepG2), 1% L-glutamine, and 1% antibiotic solution. The cells were maintained in 75 cm^2 cell culture flasks in humidified incubator at 37 °C, in an atmosphere of 5% CO2. The medium was refreshed every two or three days and the cells were trypsinized by 0.25% trypsin–0.02% EDTA after reaching 70–80% confluence. The initial cell viability was determined with the trypan blue exclusion test. Single cell suspensions were prepared and adjusted to a density of 2 × 10^5 cell/mL (HepG2) and 1 × 10^5 cell/mL (Balb/c 3T3). The cell suspension was transferred to 96-well plates (100 µL/well) and incubated for 24 h before exposure to the studied drugs.
(§5) The concentration ranges of the drugs were chosen according to their solubility and their plasma level. Each drug was dissolved in DMSO. The final concentration of DMSO was 0.1% or 0.2% in the medium for both samples and corresponding controls. […] All drug solutions in medium were freshly prepared and protected from light. SAL was tested in seven concentrations from 0.39 to 25 µg/mL. […] The cytotoxicity was assessed after 24 and 48 h of exposure of cell lines or after 12 and 24 h exposure of PHH. […]
(§6) The assay, based on staining of living cells by neutral red (NR), was performed according to the protocol described by Borenfreund and Puerner. […] After 10 min of shaking, the absorbance of the dissolved NR was measured at 540 nm using a blank as a reference. Cytotoxicity was expressed as a percentage of the negative control (0.1% or 0.2% DMSO).

Series [4] has as its system HepG2 cells. The series is described as follows: NRU assay in HepG2. Format: cell-based, human. To be noted: for EC50: Homo sapiens, read-out: EC50 (effective concentration). How it is done:
as §4, §5, §6

In another series the test system is PHH. As to the kind of experiment: Cytotoxicity battery (MTT, NRU, TPC, LDH) in PHH. Format: cell-based, human. The conditions noted are these: well tolerated at lower concentrations. How it is done: as §1, §2, §3
Series [5] has as its system HepG2 cells. The series is described as follows: TPC assay in HepG2. Format: cell-based, human. The conditions noted are these: for EC50: Homo sapiens, read-out: EC50 (effective concentration). Here is the method:
as §4
as §1, with “respectively.” for “respectively. Prednisolone was tested in one concentration—1 µg/mL independent of the type of cells.”
The assay was based on staining total cellular protein [14]. […] The absorbance was measured at 595 nm in a microplate reader using blank as a reference. Cytotoxicity was expressed as a percentage of the negative control (0.1% or 0.2% DMSO).

In the next series the test system is rats. The conditions noted are these: cited from earlier work.
[6] abbreviates: HepG2, 24 h, SAL alone or in both drug combinations (Figure S2).

Regarding `CC[C@@H](C(=O)[C@@H](C)[C@@H](O)[C@H](C)[C@@H]1O[C@@H]([C@@H](CC)C(=O)O)CC[C@@H]1C)[C@H]1O[C@]2(C=C[C@@H](O)[C@]3(CC[C@@](C)([C@H]4CC[C@](O)(CC)[C@H](C)O4)O3)O2)[C@H](C)C[C@@H]1C` [SAL, salinomycin], the “effect on hepatoma tumor” value with hepatoma tumor was “significantly reducing the hepatoma tumor”. Besides, the figures for the LD50 with horses and with rats were 0.6 mg/kg b.w and 50 mg/kg b.w, respectively. In addition, the EC50 was 0.1 to 30 µM in the series with cell lines; 0.6 to 10 µg/mL in series [1]; greater than 25 µg/mL in the series with Balb/c 3T3 cells [2] (24 h exposure); 23.1 ± 0.8 µg/mL with Balb/c 3T3 cells [2] (48 h exposure); 0.6 ± 0.2 µg/mL in the series on Balb/c 3T3 cells [3] (BALB/c3T3, 24 h); less than 0.39 µg/mL with Balb/c 3T3 cells [3] (BALB/c3T3, 48 h). Further, the EC50 is 0.6 ± 0.2 µg/mL with HepG2 cells [4] (HepG2, 24 h); less than 0.39 µg/mL in the series on HepG2 cells [4] (HepG2, 48 h); 13.3 ± 2.5 µg/mL in the series on HepG2 cells [5] (HepG2, 24 h); 11.3 ± 1.3 µg/mL in the series with HepG2 cells [5] (HepG2, 48 h). In the series with cell lines, the “EC50 values, cytotoxicity to cell lines” value is 0.08 to 22.5 µg/mL. Moreover, the “lowest concentration with significant effect on lysosomal activity” value is recorded as 0.39 µg/mL in the series on Balb/c 3T3 cells [3] (Balb/c 3T3, 24 h, SAL alone or in both drug combinations (Figure S3)) and 0.39 µg/mL with HepG2 cells [4] (setting [6]). Further, the “concentrations exerting toxic effects” value in the series with PHH was greater than 10000 ng/mL. Also, in the series with HepG2 cells [5] (setting [6]), the “lowest concentration with significant effect on total protein content” value came out at 0.39 µg/mL.

Values taken from article PMC7179450, “Primary Human Hepatocytes, But not HepG2 or Balb/c 3T3 Cells, Efficiently Metabolize Salinomycin and Are Resistant to Its Cytotoxicity” (Molecules, 2020).
